Patent publication US20190365673A1, “Immunomodulatory Compounds” (Lankenau Institute for Medical Research, priority 2016, published 2019)
Read-outs that look alike come from different tables or passages of the source.

How the values were obtained:
[1] = system: WM3743 melanoma cells; assay: Cell viability assay (EZQuant), WM3743; assay type: cell-based; conditions: Homo sapiens; AP alone, 72 h, WM3743, BRAF WT
Method: (§2) Cell proliferation assays were conducted in 96-well plates at 25-30% starting confluence to determine the effect of exposure to increasing concentrations of PLX4720 or AP with or without 1 mM DFMO for 72 hours. Cell viability was assessed using the EZQuant™ Cell Quantifying Kit (Alstem) in which WST-8 is reduced by the metabolic activity of live cells to formazan dye. […] The 72 hour IC50 values for AP were calculated using non-linear regression (sigmoidal dose response) of the plot of percentage inhibition versus the log of inhibitor concentration in GraphPad Prism (v5; GraphPad Software, Inc., La Jolla, Calif.).

[2] = system: BRAF^WT melanoma cells; assay: Cell viability, panel of BRAF WT human melanoma cell lines; assay type: cell-based; conditions: summary of Table 1, BRAF WT lines, read-out: IC50 (sensitivity to AP)
Excerpt: (§1) A panel of human melanoma cell lines with different BRAF mutational status were screened for their sensitivity to the BRAF inhibitor PLX4720. […] The IC50 value is defined as the concentration of the compound (PLX4720) required to inhibit 50% cell viability compared to an untreated control. This approach allowed for the ranking of the relative sensitivity of each cell line to the PLX4720 BRAF inhibitor. Thus, the sensitivity of these BRAF^V600E melanoma cells to BRAF inhibition with PLX4720 reflected their functional dependence on mutant BRAF signaling to sustain their proliferation and viability. Likewise, it was tested whether BRAF^V600E cells were more sensitive compared to BRAF^WT melanoma cells to increasing concentrations of the cytotoxic polyamine transport ligand, AP.

[3] = system: WM88 melanoma cells; assay: Cell viability assay (EZQuant), WM88; assay type: cell-based; conditions: Homo sapiens; AP alone, 72 h, WM88, BRAF V600E
Method: as §2

[4] = system: WM3734 melanoma cells; assay: Cell viability assay (EZQuant), WM3734; assay type: cell-based; conditions: Homo sapiens; AP alone, 72 h, WM3734, BRAF V600E
Method: as §2

[5] = system: BRAF^V600E melanoma cells; assay: Cell viability, panel of BRAF V600E human melanoma cell lines; assay type: cell-based; conditions: summary of Table 1, BRAF V600E lines, read-out: IC50 (sensitivity to AP)
Excerpt: as §1

[6] = system: WM983B melanoma cells; assay: Cell viability assay (EZQuant), WM983B; assay type: cell-based; conditions: Homo sapiens, AP alone, 72 h
Method: as §2

[7] = system: B16F10 melanoma tumors; assay: B16F10 melanoma tumor model (Example 3); assay type: in vivo, C57Bl/6 mice
Method: C57Bl/6 mice were injected s.c. with 1.5×10^5 B16F10 melanoma cells. B16F10 melanoma cells are a poorly immunogenic, highly metastatic, and highly aggressive cancer cell line. When tumors were 40-80 mm^3 in size, AP (Formula (II)) treatment (i.p., 2 mg/kg every other day) was initiated. Some mice were also administered 0.25% DFMO (w/v) in the drinking water. Tumors were measured with calipers to determine tumor volume over 14 days of treatment (FIG. 12A). Splenocytes from mice treated with vehicle, DFMO, AP, or AP+DFMO were analyzed by flow cytometry for F4/80+CD206^+ M2 macrophages (FIG. 12B). Splenocytes were treated for 4 hours at 37° C. with ionomycin (500 ng/ml) and PMA (50 ng/ml) to stimulate T cells to produce IFNγ in the presence of Brefeldin A to block cytokine secretion. Cells were stained with anti-CD4 antibody in the presence of Brefeldin A, fixed, permeabilized and intracellularly stained with an anti-IFNγ antibody and analyzed by flow cytometry (FIG. 12C).

## CNCNCNCc1ccc(CNCNCNC)c2ccccc12 [AP]
[1]
  IC50: 8.9 µM
[2]
  IC50: > 4 µM
[3]
  IC50: 0.8 µM
[4]
  IC50: 2.2 µM
[5]
  IC50: < 2500 nM
[6]; BRAF V600E, read-out: IC50 (μM AP)
  IC50: 2.6 µM
[6]; FIG. 8C, read-out: IC50
  IC50: 2.3 µM
[7]; FIG. 12A, AP alone, i.p. 2 mg/kg every other day, 14 days
  tumor growth: inhibits tumor growth
[7]; FIG. 12B, AP alone
  CD206+ F4/80+ macrophages (splenocytes): dramatically decreases
[7]; FIG. 12C, splenocytes stimulated with ionomycin and PMA
  IFN-gamma-secreting T cells: increasing
